The results in this text go back to patent publication US11339144B2 (Navitor Pharmaceuticals, Inc., priority 2017, dated 2022).

One assay has as its target Rheb (Homo sapiens (Human), UniProt Q15382). Nature of the assay: Affinity Selection Mass Spectrometry (ASMS). In kind it is binding. Particulars: affinity (R3/R0) in Affinity Selection Mass Spectrometry assay. Summed up: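 Affinity selection used 2 μM compound with 60 μM Rheb and 180 μM GDP for 30 min at room temperature. After 10 kDa ultrafiltration washes, protein was denatured in MeCN and bound compound quantified by C18 UPLC with Q-TOF MS, against a no-protein control.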

Assay [1] has as its target HA-GST-Rheb (GTP-γ-S loaded) activating mTORC1 (Homo sapiens (Human), UniProt Q15382). Nature of the assay: Rheb-dependent in vitro kinase assay (Rheb-IVK; LanthaScreen or Western readout). In kind it is biochemical. Particulars: Rheb-dependent in vitro kinase assay; read-out: IVK IC50. In general terms: TR-FRET usually uses a lanthanide donor and a delayed reading to cut background.

Sequence of Rheb (Q15382 1-169 limits assumed): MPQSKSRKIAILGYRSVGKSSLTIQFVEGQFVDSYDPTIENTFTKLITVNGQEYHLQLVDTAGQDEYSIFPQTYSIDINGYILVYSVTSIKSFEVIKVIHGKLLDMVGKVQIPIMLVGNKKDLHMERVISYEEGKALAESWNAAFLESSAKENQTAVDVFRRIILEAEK
Sequence of HA-GST-Rheb (GTP-γ-S loaded) activating mTORC1 (Q15382 1-181): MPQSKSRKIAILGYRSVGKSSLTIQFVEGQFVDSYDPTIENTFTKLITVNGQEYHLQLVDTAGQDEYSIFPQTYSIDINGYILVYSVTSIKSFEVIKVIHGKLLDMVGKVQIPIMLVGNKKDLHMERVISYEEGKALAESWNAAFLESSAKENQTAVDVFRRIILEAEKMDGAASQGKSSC

`CNCc1cc2c(Br)cc(Sc3ccc(Cl)c(Cl)c3)cc2n1Cc1ccc(C(=O)N(C)C)cc1` [I-38]: the “ASMS (R3/R0)” value at Rheb is listed as “A (an affinity (R3/R0)>100%)”. The IC50 in assay [1] was more than 100 µM.
`Clc1cc2nc(-c3ccnc(N4CCNCC4)c3)[nH]c2cc1Cl` [I-346]: the “ASMS (R3/R0)” value at Rheb is given as “A (an affinity (R3/R0)>100%)”. Besides, in assay [1], the IC50 was more than 100 µM.
Take `O=C(O)c1cc2c(Br)cc(Oc3ccccc3)cc2n1Cc1ccc(C(=O)N2CCNCC2)cc1` [I-61]: the “ASMS (R3/R0)” value on Rheb is “C (an affinity (R3/R0)<20%)”. Moreover, the IC50 in assay [1] is more than 100 µM.
`CN1CCN(C(=O)c2ccc(Cn3c(C(=O)O)cc4c(Br)cc(Oc5ccccc5)cc43)cc2)CC1` [I-68]: the “ASMS (R3/R0)” value on Rheb is on record as “C (an affinity (R3/R0)<20%)”. For the same compound, the IC50 in assay [1] is more than 3 µM.
Regarding `Clc1cc2nc(-c3ncco3)n(Cc3ccc(-c4nn[nH]n4)cc3)c2cc1Cl` [I-489, 2-(1-(4-(2H-tetrazol-5-yl)benzyl)-5,6-dichloro-1H-benzo[d]imidazol-2-yl)oxazole], the “ASMS (R3/R0)” value on Rheb is listed as “C (an affinity (R3/R0)<20%)”. Moreover, the IC50 in assay [1] is 100 to 300 µM.
For `CN(C)C(=O)c1ccc(Cn2c(CN)cc3c(Br)cc(Sc4ccc(Cl)c(Cl)c4)cc32)cc1` [I-37], in that order: “C (an affinity (R3/R0)<20%)” and more than 100 µM.
For `Clc1cc(Oc2ccccc2Cl)c2cc[nH]c2c1` [I-202, 6-chloro-4-(2-chlorophenoxy)-1H-indole], the “ASMS (R3/R0)” value at Rheb was “B (an affinity (R3/R0) between 100% and 20%)”. Also, the IC50 in assay [1] lay within 10 to 100 µM.
Turning to `NC(=O)c1cc2c(Oc3ccccc3)cc(Cl)cc2[nH]1` [I-169, 6-chloro-4-phenoxy-1H-indole-2-carboxamide], the “ASMS (R3/R0)” value at Rheb was “B (an affinity (R3/R0) between 100% and 20%)”. Moreover, the IC50 in assay [1] lay within 10 to 100 µM.
In the case of `CN1CC(NC(=O)c2cc3c(-c4cc(Cl)cc(Cl)c4)cc(Cl)cc3[nH]2)C1` [I-26], the “ASMS (R3/R0)” value at Rheb was “B (an affinity (R3/R0) between 100% and 20%)”. Also, the IC50 in assay [1] is more than 100 µM.
Consider “1-(4-carboxybenzyl)-6-chloro-4-(3,4-dichlorophenoxy)-1H-indole-2-carboxylic acid [I-140]”, for which, at Rheb, the “ASMS (R3/R0)” value was “B (an affinity (R3/R0) between 100% and 20%)”. Also, the IC50 in assay [1] lay within 10 to 100 µM.
Regarding `NCc1cc2c(Oc3ccccc3)cc(Cl)cc2[nH]1` [I-170, (6-chloro-4-phenoxy-1H-indol-2-yl)methanamine], the “ASMS (R3/R0)” value on Rheb is “B (an affinity (R3/R0) between 100% and 20%)”. For the same compound, the IC50 in assay [1] is 10 to 100 µM.
As for `O=C(O)c1nc2c(OCC3CCCCC3)c(Cl)c(Cl)cc2[nH]1` [I-342, 5,6-dichloro-4-(cyclohexylmethoxy)-1H-benzo[d]imidazole-2-carboxylic acid], the “ASMS (R3/R0)” value on Rheb is “B (an affinity (R3/R0) between 100% and 20%)”. In addition, the concentration for half-maximal inhibition (IC50) in assay [1] lay in the range of 10 to 100 µM.
With `O=C(O)c1cc2c(Br)cc(Sc3ccc(Cl)c(Cl)c3)cc2[nH]1` [I-139, 4-bromo-6-(3,4-dichlorophenylthio)-1H-indole-2-carboxylic acid], the “ASMS (R3/R0)” value at Rheb was “B (an affinity (R3/R0) between 100% and 20%)”. For the same compound, the IC50 in assay [1] is less than 10 µM.
`O=C(NCCN1CCCC1)c1cc2c(Sc3ccc(Cl)cc3)cc(Cl)cc2[nH]1` [I-148, 6-chloro-4-(4-chlorophenylthio)-N-(2-(pyrrolidin-1-yl)ethyl)-1H-indole-2-carboxamide]: on Rheb, the “ASMS (R3/R0)” value was “B (an affinity (R3/R0) between 100% and 20%)”. The IC50 in assay [1] is 10 to 100 µM.
With `OCc1nc2c(OCC3CCCCC3O)cc(Cl)cc2[nH]1` (stereo not drawn) [I-390, 2-((6-chloro-2-(hydroxymethyl)-1H-benzo[d]imidazol-4-yloxy)methyl)cyclohexanol], the “ASMS (R3/R0)” value at Rheb was “C (an affinity (R3/R0)<20%)”. The IC50 in assay [1] lay within 100 to 300 µM.
For the compound `Clc1ccc(COc2cc3nc(-c4ccncc4)[nH]c3c(Cl)c2Cl)cc1` [I-354, 6,7-dichloro-5-(4-chlorobenzyloxy)-2-(pyridin-4-yl)-1H-benzo[d]imidazole], the “ASMS (R3/R0)” value at Rheb is on record as “A (an affinity (R3/R0)>100%)”. The IC50 in assay [1] lay within 10 to 100 µM.
`CN1CCC(CNC(=O)c2cc3c(Sc4ccc(Cl)cc4Cl)cc(Cl)c(Cl)c3[nH]2)CC1` [I-35, 6,7-dichloro-4-(2,4-dichlorophenylthio)-N-((1-methylpiperidin-4-yl)methyl)-1H-indole-2-carboxamide]: the “ASMS (R3/R0)” value on Rheb is recorded as “A (an affinity (R3/R0)>100%)”. Moreover, the IC50 in assay [1] is less than 10 µM.
For `Cc1ccc(Oc2cc(Cl)cc3[nH]c(CO)cc23)cc1C(F)(F)F` [I-82, (6-Chloro-4-(4-methyl-3-(trifluoromethyl)phenoxy)-1H-indol-2-yl)methanol], the “ASMS (R3/R0)” value on Rheb was “B (an affinity (R3/R0) between 100% and 20%)”. Also, the IC50 in assay [1] was less than 10 µM.
With `Clc1ccc(Oc2cccc3[nH]ccc23)cc1` [I-283, 4-(4-chlorophenoxy)-1H-indole], the “ASMS (R3/R0)” value at Rheb was “C (an affinity (R3/R0)<20%)”. In addition, in assay [1], the IC50 lay within 100 to 300 µM.
As to `Clc1cc2nc(-c3ccnc(-c4ccccc4)c3)[nH]c2cc1Cl` [I-368], on Rheb, the “ASMS (R3/R0)” value was “B (an affinity (R3/R0) between 100% and 20%)”. In assay [1], the IC50 was more than 100 µM.
For the compound “5,6-dichloro-4-(4-chlorobenzyloxy)-1H-benzo[d]imidazole-2-carboxylic acid [I-330]”, the “ASMS (R3/R0)” value at Rheb is “B (an affinity (R3/R0) between 100% and 20%)”. In addition, in assay [1], the IC50 was more than 100 µM.
On to `NC(=O)CCc1cc2c(Oc3ccccc3)c(Cl)ccc2[nH]1` [I-247, 3-(5-chloro-4-phenoxy-1H-indol-2-yl)propanamide], for which the “ASMS (R3/R0)” value at Rheb was “C (an affinity (R3/R0)<20%)”. The IC50 in assay [1] fell in the range of 10 to 100 µM.
In the case of `O=C(O)c1cc2c(Sc3ccc(Cl)cc3)cc(Cl)cc2[nH]1` [I-190, 6-chloro-4-(4-chlorophenylthio)-1H-indole-2-carboxylic acid], the “ASMS (R3/R0)” value at Rheb was “B (an affinity (R3/R0) between 100% and 20%)”. In addition, the IC50 in assay [1] lay within 10 to 100 µM.
For the compound `OCC(O)c1nc2c(OCC3CCCCC3)c(Cl)c(Cl)cc2[nH]1` (stereo not drawn) [I-325, 1-(5,6-dichloro-4-(cyclohexylmethoxy)-1H-benzo[d]imidazol-2-yl)ethane-1,2-diol], the “ASMS (R3/R0)” value at Rheb is “B (an affinity (R3/R0) between 100% and 20%)”. In addition, in assay [1], the IC50 was in the range of 10 to 100 µM.
Regarding `Fc1ccccc1Oc1cccc2[nH]ccc12` [I-288, 4-(2-fluorophenoxy)-1H-indole], at Rheb, the “ASMS (R3/R0)” value is given as “C (an affinity (R3/R0)<20%)”. In addition, the IC50 in assay [1] lay in the range of 100 to 300 µM.
For the compound `O=C(O)c1cc2c(Cl)cc(Sc3ccc(Cl)c(Cl)c3)cc2[nH]1` [I-100, 4-chloro-6-(3,4-dichlorophenylthio)-1H-indole-2-carboxylic acid], the “ASMS (R3/R0)” value at Rheb is “B (an affinity (R3/R0) between 100% and 20%)”. The IC50 in assay [1] is less than 10 µM.
Turning to `CN1CCN(C(=O)Cc2nc3cc(Cl)c(OCc4ccc(Cl)cc4)cc3[nH]2)CC1` [I-332, 2-[5-chloro-6-[(4-chlorophenyl)methoxy]-1H-benzimidazol-2-yl]-1-(4-methylpiperazin-1-yl)ethanone], at Rheb, the “ASMS (R3/R0)” value is listed as “A (an affinity (R3/R0)>100%)”. Moreover, the IC50 in assay [1] is 10 to 100 µM.
Regarding `OCc1nc2cc(OCc3ccc(Cl)cc3)c(Cl)cc2[nH]1` [I-486, (6-chloro-5-(4-chlorobenzyloxy)-1H-benzo[d]imidazol-2-yl)methanol], the “ASMS (R3/R0)” value at Rheb is “A (an affinity (R3/R0)>100%)”. In assay [1], the IC50 is more than 100 µM.
`OCc1nc2c(OC[C@H]3CCCC[C@H]3O)c(Cl)c(Cl)cc2[nH]1` (single isomer, unassigned) [I-389]: the “ASMS (R3/R0)” value on Rheb is reported as “C (an affinity (R3/R0)<20%)”. In addition, the IC50 in assay [1] is more than 100 µM.
On to `OCc1nc2c(OCC3CCCC3O)c(Cl)c(Cl)cc2[nH]1` (stereo not drawn) [I-379, 2-((5,6-dichloro-2-(hydroxymethyl)-1H-benzo[d]imidazol-4-yloxy)methyl)cyclopentanol], for which the “ASMS (R3/R0)” value at Rheb is “C (an affinity (R3/R0)<20%)”. The IC50 in assay [1] was more than 100 µM.
For `O=C(O)c1cc2c(Cl)cc(Oc3ccccc3)cc2n1Cc1c[nH]cn1` [I-173, 1-((1H-imidazol-4-yl)methyl)-4-chloro-6-phenoxy-1H-indole-2-carboxylic acid], in that order: “C (an affinity (R3/R0)<20%)” and 10 to 100 µM.
Take `CN1CCN(C(=O)c2cc3c(Sc4ccc(Cl)cc4)cc(Cl)cc3[nH]2)CC1` [I-90]: at Rheb, the “ASMS (R3/R0)” value is “B (an affinity (R3/R0) between 100% and 20%)”. The half-inhibitory concentration (IC50) in assay [1] was more than 100 µM.
As to `CC(O)c1cc2c(Oc3ccccc3)cc(Cl)cc2[nH]1` (stereo not drawn) [I-186, 1-(6-Chloro-4-phenoxy-1H-indol-2-yl)ethanol], the “ASMS (R3/R0)” value at Rheb is “B (an affinity (R3/R0) between 100% and 20%)”. Besides, in assay [1], the IC50 fell in the range of 10 to 100 µM.
As to `OCc1nc2c(OC[C@H]3CNCC[C@@H]3O)c(Cl)c(Cl)cc2[nH]1` (racemic) [I-385], the “ASMS (R3/R0)” value on Rheb is “C (an affinity (R3/R0)<20%)”. In assay [1], the IC50 is more than 100 µM.
Taken in the same sequence, the figures for `OCc1nc2c(OC[C@H]3CCCC[C@@H]3O)c(Cl)c(Cl)cc2[nH]1` [I-439, 2-((5,6-dichloro-2-(hydroxymethyl)-1H-benzo[d]imidazol-4-yloxy)methyl)cyclohexanol] were “C (an affinity (R3/R0)<20%)” and 10 to 100 µM.
Take `Clc1cc2[nH]c(-c3ccncc3)nc2c(OCC2CCCCC2)c1Cl` [I-348]: the “ASMS (R3/R0)” value at Rheb is “B (an affinity (R3/R0) between 100% and 20%)”. In addition, the IC50 in assay [1] is more than 100 µM.
For the compound `Clc1ccccc1Sc1cccc2[nH]ccc12` [I-244, 4-(2-chlorophenylthio)-1H-indole], the “ASMS (R3/R0)” value at Rheb is “B (an affinity (R3/R0) between 100% and 20%)”. For the same compound, in assay [1], the IC50 lay within 10 to 100 µM.
Turning to `CN1CCC(CCNC(=O)c2ccc(-c3nc4cc(Cl)c(Cl)cc4[nH]3)cc2)CC1` [I-362], the “ASMS (R3/R0)” value on Rheb is given as “A (an affinity (R3/R0)>100%)”. The 50% inhibitory concentration (IC50) in assay [1] is more than 100 µM.
As to `O=C(O)c1ccc(CCn2c(C(=O)O)cc3c(Br)cc(Oc4ccccc4)cc32)cc1` [I-36], the “ASMS (R3/R0)” value at Rheb is recorded as “C (an affinity (R3/R0)<20%)”. Further, in assay [1], the IC50 was more than 100 µM.

By IC50 is commonly meant the concentration that inhibits the measured activity by half.
